Assay results as given in ChEMBL document CHEMBL1131733, “Dual-acting agents with alpha1-adrenoceptor antagonistic and steroid 5alpha-reductase inhibitory activities. Synthesis and evaluation of arylpiperazine derivatives” (Bioorg Med Chem Lett, 1999).

Tests used:
[1] = Antagonistic Alpha-1 adrenergic receptor activity against phenylephrine-induced contraction of rabbit prostate; type: functional, Oryctolagus cuniculus
[2] = target: T1, Steroid 5-alpha-reductase (Rattus norvegicus, UniProt P24008+P31214); assay: Inhibition of Steroid 5-alpha-reductase from Dawley rat prostate; type: tissue-based, Prostate gland
T1 sequence (P24008 whole entry): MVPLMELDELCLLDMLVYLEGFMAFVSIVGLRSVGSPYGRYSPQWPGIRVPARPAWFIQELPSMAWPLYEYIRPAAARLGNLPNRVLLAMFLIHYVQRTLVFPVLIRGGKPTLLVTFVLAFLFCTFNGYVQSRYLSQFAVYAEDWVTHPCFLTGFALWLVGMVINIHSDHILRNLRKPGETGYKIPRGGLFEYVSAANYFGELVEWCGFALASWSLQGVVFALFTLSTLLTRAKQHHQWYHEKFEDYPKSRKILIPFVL
T1 sequence (P31214 whole entry): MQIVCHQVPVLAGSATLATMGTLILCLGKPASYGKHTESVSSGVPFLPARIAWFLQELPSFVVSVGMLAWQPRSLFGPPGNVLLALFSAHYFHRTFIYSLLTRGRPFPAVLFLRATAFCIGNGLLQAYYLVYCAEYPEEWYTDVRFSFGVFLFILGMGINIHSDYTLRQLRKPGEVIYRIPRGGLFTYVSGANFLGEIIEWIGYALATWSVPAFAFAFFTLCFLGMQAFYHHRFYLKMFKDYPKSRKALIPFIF

Oryctolagus cuniculus = assay: Dose required to inhibit increase in urethral pressure induced by phenylephrine in anesthetized rabbits by iv administration; type: functional
[3] = target: Steroid 5-alpha-reductase (Rattus norvegicus) (UniProt P24008+P31214); assay: Inhibitory effect on prostatic Steroid 5-alpha-reductase, 2 hours after oral administration

## COc1ccccc1N1CCN(CCC(Oc2ccc(C(=O)Nc3ccccc3OCCCC(=O)O)cc2)c2ccc(C)cc2)CC1 (centres undefined)
[1]
  pA2: 7.8

## COc1ccccc1N1CCN(CCOc2cc(C(=O)c3cn(CCCC(=O)O)c4ccccc34)ccc2OCc2ccc(C)cc2)CC1
[1]
  pA2: 6.8
[2]
  IC50: 4.8 nM

## COc1ccccc1N1CCN(CCCNc2cc(=O)n(C)c(=O)n2C)CC1
[1]
  pA2: 7.1

## COc1ccccc1N1CCN(CCC(Oc2ccc(C(=O)Nc3ccccc3OCCCC(=O)O)cc2)c2ccccc2)CC1 (centres undefined)
[1]
  pA2: 7.6
[2]
  IC50: 920 nM

## Cc1ccc(COc2ccc(C(=O)c3cn(CCCC(=O)O)c4ccccc34)cc2OCCCN2CCN(c3ccccc3OC(C)C)CC2)cc1
[1]
  pA2: 6.8
[2]
  IC50: 2.9 nM

## COc1ccccc1N1CCN(CCCOc2cc(C(=O)c3cn(CCCC(=O)O)c4ccccc34)ccc2OCc2ccccc2)CC1
[1]
  pA2: 7.8
[2]
  IC50: 11 nM

## CC(C)Cc1ccc(C(Nc2cccc(C(=O)c3cn(CCCC(=O)O)c4ccccc34)c2)c2ccc(CC(C)C)cc2)cc1
[2]
  IC50: 4.2 nM

## CCOc1ccccc1N1CCN(CCCOc2cc(C(=O)c3cn(CCCC(=O)O)c4ccccc34)ccc2OCc2ccc(C)cc2)CC1
[1]
  pA2: 7.5
Oryctolagus cuniculus
  Dose: 0.3 mg/kg
[3]
  ED50: 7.9 mg/kg
[2]
  IC50: 1.5 nM

## COc1ccccc1N1CCN(CCCOc2cc(C(=O)c3cn(CCCC(=O)O)c4ccccc34)ccc2OCc2ccc(C)cc2)CC1
[1]
  pA2: 7.7
[2]
  IC50: 3.5 nM

## CCCOc1ccccc1N1CCN(CCCOc2cc(C(=O)c3cn(CCCC(=O)O)c4ccccc34)ccc2OCc2ccc(C)cc2)CC1
[1]
  pA2: 6.8
[2]
  IC50: 3 nM

## COc1ccccc1N1CCN(CCCOc2ccc(C(=O)Nc3ccccc3OCCCC(=O)O)cc2OCc2ccccc2)CC1
[1]
  pA2: 7.2
[2]
  IC50: 3500 nM

## COc1ccccc1N1CCN(CCCOc2cc(C(=O)Nc3ccccc3OCCCC(=O)O)ccc2OCc2ccccc2)CC1
[1]
  pA2: 8
[2]
  IC50: 490 nM

## CCc1ccc(COc2ccc(C(=O)c3cn(CCCC(=O)O)c4ccccc34)cc2OCCCN2CCN(c3ccccc3OC)CC2)cc1
[1]
  pA2: 6.6
[2]
  IC50: 4 nM

## COc1ccccc1N1CCN(CCCCOc2cc(C(=O)c3cn(CCCC(=O)O)c4ccccc34)ccc2OCc2ccc(C)cc2)CC1
[1]
  pA2: 6.7
[2]
  IC50: 1.5 nM

## COc1ccccc1N1CCN(CCCOc2ccc(C(=O)c3cn(CCCC(=O)O)c4ccccc34)cc2OCc2ccccc2)CC1
[1]
  pA2: 7
[2]
  IC50: 360 nM
